Test results: patent US10329324B2 (viDA Therapeutics Inc., priority 2013, dated 2019)
Counter-ions that a name gives are not always drawn. Like-named read-outs stand apart in the source and are kept apart here.

Key:
[1] = Kinetic solubility determination in PBS; assay type: physicochemical; conditions: phosphate buffered saline (PBS 1×), 21 °C, pH 7.4, aqueous buffer, kinetic from dmso stock, PBS 1X pH 7.4, 2.0% DMSO, 24 hour incubation at ambient temperature
How it was run: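 DMSO stocks were diluted into PBS (1×) pH 7.4 to 2.0% final DMSO and a maximum theoretical concentration of typically 200 μM. After 24 hour incubation at ambient temperature (20.5-21.7° C.), samples were vacuum filtered. The filtrate was quantified by chemiluminescent nitrogen detection against a nitrogen calibration curve, with background-corrected values given in μM and μg/mL.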

human Granzyme B (hGzmB) = target: T1, human Granzyme B (hGzmB) (Homo sapiens, UniProt P10144); assay: Human Granzyme B enzymatic inhibition assay (fluorogenic, kinetic); assay type: biochemical; conditions: activity codes, Table 7; read-out: IC50 Activity Range
T1 construct: purchased Froelich Lab, Northshore University Health Systems Research Institute, Evanston, Ill., USA
How it was run: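 Human Granzyme B preincubated with compound for 30 min total (5 min shaking, 20 min bench, then reaction temperature). Fluorogenic substrate added and read kinetically, 25 cycles at 1-min intervals. Percent inhibition at one or two concentrations or 8–12-point 3-fold dose response from 20 uM, replicates, with IC50 by non-linear regression.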

GzmB = GzmB (Homo sapiens, UniProt P10144); assay: Inhibition of fibronectin cleavage by GzmB; assay type: biochemical; conditions: 20 nM granzyme B, labeled fibronectin
Procedure: Black, 96 well high-binding assay plates (Griener Bio-one) were treated overnight at 4° C. with 40 uL of 8 ug/mL Hilyte Fluor 488 labeled Fibronectin (Cytoskeleton, Inc). After fibronectin coating, plates were washed 3 times in buffer (20 mM Tris-HCl, pH 7.4, 20 mM NaCl) then once with granzyme B assay buffer (50 mM HEPES, pH 7.5, 0.1% CHAPS). After washing, 50 uL of granzyme B assay buffer was added to each fibronectin-coated well. In a separate non-binding 96 well assay plate 5 uL of 20× inhibitor serial dilution stocks were added to 45 uL of 2.22×GzmB mix to establish inhibition (enzyme/inhibitor mixes were all prepared in granzyme B assay buffer and were incubated first at room temperature for 20 minutes, then at 30° C. for another 10 minutes). After incubation, 50 uL of this 2× enzyme/inhibitor mix was added to the corresponding coated well to initiate fibronectin cleavage (20 nM final granzyme B concentration, 8-point inhibitor dilution series starting at 50 uM). The assay was conducted at 30° C. in the TECAN plate reader (TECAN INFINITE® M1000 Pro), which was programmed to monitor the kinetic fluorescence polarization signal (filter set Ex/Em 470 nm/527 nm) with readings taken every minute, for 1 hour. Proteolytic activity was evaluated as the rate of fluorescence enhancement in the parallel emission over the linear range of the reaction. % Inhibition values were calculated from assay controls and the resulting date is shown in Table 8.

[2] = read-out: Solubility in aqueous PBS Buffer (1X, pH 7.4)
[3] = read-out: Solubility in aqueous PBS Buffer (1X, pH 7.4), ug/mL

GzmB, sequence (P10144 21-247): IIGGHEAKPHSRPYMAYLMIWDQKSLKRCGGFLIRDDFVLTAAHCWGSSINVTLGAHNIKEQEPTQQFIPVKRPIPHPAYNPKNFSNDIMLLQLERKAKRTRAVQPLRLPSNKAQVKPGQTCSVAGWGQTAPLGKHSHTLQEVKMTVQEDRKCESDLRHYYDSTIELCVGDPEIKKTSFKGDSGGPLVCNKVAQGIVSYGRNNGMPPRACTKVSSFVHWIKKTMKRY
T1 sequence (P10144 21-247): as above

| Structure (SMILES) | solubility at 24 h [1, 2] [µM] | solubility at 24 h [1, 3] [µg/mL] | IC50 (human Granzyme B (hGzmB)) [nM] | inhibition at 0.62 µM (GzmB; 0.62 uM inhibitor, read-out: Percent Inhibition at Inhibitor Concentration 0.62 uM) [%] | inhibition at 5.56 µM (GzmB; 5.56 uM inhibitor, read-out: Percent Inhibition at Inhibitor Concentration 5.56 uM) [%] | inhibition at 50 µM (GzmB; 50 uM inhibitor, read-out: Percent Inhibition at Inhibitor Concentration 50 uM) [%] |
| --- | --- | --- | --- | --- | --- | --- |
| CC[C@H](C)[C@H](NC(=O)CCC(=O)O)C(=O)NCC(=O)N1c2ccccc2C[C@H]1C(=O)NCc1nn[nH]n1 [Example A13, 3-{[(1S,2S)-2-Methyl-1-({2-Oxo-2-[(2S)-2-[(2H-1,2,3,4-Tetrazol-5-Ylmethyl)Carbamoyl]-2,3-Dihydro-1H-Indol-1-Yl]Ethyl}Carbamoyl)Butyl]Carbamoyl}Propanoic Acid] | > 750 | > 386 | < 100 | 11 | 52 | 82 |
| CC(C)[C@H](NC(=O)CCC(=O)O)C(=O)NCC(=O)N1c2ccccc2C[C@H]1C(=O)NCc1nn[nH]n1 [Example A46, 3-{[(1S)-2-Methyl-1-({2-Oxo-2-[(2S)-2-[(2H-1,2,3,4-Tetrazol-5-Ylmethyl)Carbamoyl]-2,3-Dihydro-1H-Indol-1-Yl]Ethyl}Carbamoyl)Propyl]Carbamoyl}Propanoic Acid] | > 750 | > 375 | < 100 |  |  |  |
| CC[C@H](C)[C@H](NC(=O)CCC(C)(C)C(=O)O)C(=O)NCC(=O)N1c2ccccc2C[C@H]1C(=O)NCc1nn[nH]n1 [Example A52, 2,2-Dimethyl-4-{[(1S,2S)-2-Methyl-1-({2-Oxo-2-[(2S)-2-[(2H-1,2,3,4-Tetrazol-5-Ylmethyl)Carbamoyl]-2,3-Dihydro-1H-Indol-1-Yl]Ethyl}Carbamoyl)Butyl]Carbamoyl}Butanoic Acid] | > 750 | > 418 | < 100 |  |  |  |
| CC[C@H](C)[C@H](NC(=O)CC(C)(C)C(=O)O)C(=O)NCC(=O)N1c2ccccc2C[C@H]1C(=O)NCc1nn[nH]n1 [Example A53, 2,2-Dimethyl-3-{[(1S,2S)-2-Methyl-1-({2-Oxo-2-[(2S)-2-[(2H-1,2,3,4-Tetrazol-5-Ylmethyl)Carbamoyl]-2,3-Dihydro-1H-Indol-1-Yl]Ethyl}Carbamoyl)Butyl]Carbamoyl}Propanoic Acid] | > 750 | > 407 | < 100 |  |  |  |
| CC[C@H](C)[C@H](NC(=O)C(C)(C)CCC(=O)O)C(=O)NCC(=O)N1c2ccccc2C[C@H]1C(=O)NCc1nn[nH]n1 [Example A55, 4,4-Dimethyl-4-{[(1S,2S)-2-Methyl-1-({2-Oxo-2-[(2S)-2-[(2H-1,2,3,4-Tetrazol-5-Ylmethyl)Carbamoyl]-2,3-Dihydro-1H-Indol-1-Yl]Ethyl}Carbamoyl)Butyl]Carbamoyl}Butanoic Acid] | > 750 | > 418 | < 100 |  |  |  |
| CC[C@H](C)[C@H](NC(=O)C(C)(C)CC(=O)O)C(=O)NCC(=O)N1c2ccccc2C[C@H]1C(=O)NCc1nn[nH]n1 [Example A56, 3,3-Dimethyl-3-{[(1S,2S)-2-Methyl-1-({2-Oxo-2-[(2S)-2-[(2H-1,2,3,4-Tetrazol-5-Ylmethyl)Carbamoyl]-2,3-Dihydro-1H-Indol-1-Yl]Ethyl}Carbamoyl)Butyl]Carbamoyl}Propanoic Acid] | > 750 | > 407 | < 100 |  |  |  |
| CC[C@H](C)[C@H](NC(=O)Cc1ccccc1)C(=O)NCC(=O)N1c2ccccc2C[C@H]1C(=O)NCc1c[nH]nn1 [Example B1, (2S)-1-{2-[(2S,3S)-3-Methyl-2-(2-Phenylacetamido)Pentanamido]Acetyl}-N-(1H-1,2,3-Triazol-4-Ylmethyl)-2,3-Dihydro-1H-Indole-2-Carboxamide] | 97 | 62 | 100 to 1000 |  |  |  |

Continued, values first:

| solubility at 24 h [1, 2] [µM] | solubility at 24 h [1, 3] [µg/mL] | IC50 (human Granzyme B (hGzmB)) [nM] | inhibition at 0.62 µM (GzmB; 0.62 uM inhibitor, read-out: Percent Inhibition at Inhibitor Concentration 0.62 uM) [%] | inhibition at 5.56 µM (GzmB; 5.56 uM inhibitor, read-out: Percent Inhibition at Inhibitor Concentration 5.56 uM) [%] | inhibition at 50 µM (GzmB; 50 uM inhibitor, read-out: Percent Inhibition at Inhibitor Concentration 50 uM) [%] | Structure (SMILES) |
| --- | --- | --- | --- | --- | --- | --- |
| > 150 | > 78 | 100 to 1000 |  |  |  | CC(C)[C@H](NC(=O)Cc1ccccc1)C(=O)NCC(=O)N1c2ccccc2C[C@H]1C(=O)NCc1nn[nH]n1 [Example C1, (2S)-1-{2-[(2S)-3-Methyl-2-(2-Phenylacetamido)Butanamido]Acetyl}-N-(2H-1,2,3,4-Tetrazol-5-Ylmethyl)-2,3-Dihydro-1H-Indole-2-Carboxamide] |
| 125 | 68 | 1000 to 10000 |  |  |  | CC[C@H](C)[C@H](NC(=O)Cc1ccccc1)C(=O)N[C@@H](C)C(=O)N1c2ccccc2C[C@H]1C(=O)NCc1nn[nH]n1 [Example C11, (2S)-1-[(2S)-2-[(2S,3S)-3-Methyl-2-(2-Phenylacetamido)Pentanamido]Propanoyl]-N-(2H-1,2,3,4-Tetrazol-5-Ylmethyl)-2,3-Dihydro-1H-Indole-2-Carboxamide] |
| 112 | 61 | > 10000 |  |  |  | CC[C@H](C)[C@H](NC(=O)Cc1ccccc1)C(=O)N[C@H](C)C(=O)N1c2ccccc2C[C@H]1C(=O)NCc1nn[nH]n1 [Example C12, (2S)-1-[(2R)-2-[(2S,3S)-3-Methyl-2-(2-Phenylacetamido)Pentanamido]Propanoyl]-N-(2H-1,2,3,4-Tetrazol-5-Ylmethyl)-2,3-Dihydro-1H-Indole-2-Carboxamide] |
| > 750 | > 454 | 100 to 1000 |  |  |  | CC[C@H](C)[C@H](NC(=O)Cc1ccccc1)C(=O)N[C@@H](CCC(=O)O)C(=O)N1c2ccccc2C[C@H]1C(=O)NCc1nn[nH]n1 [Example C13, (4S)-4-[(2S,3S)-3-Methyl-2-(2-Phenylacetamido)Pentanamido]-5-Oxo-5-[(2S)-2-[(2H-1,2,3,4-Tetrazol-5-Ylmethyl)Carbamoyl]-2,3-Dihydro-1H-Indol-1-Yl]Pentanoic Acid] |
| 596 | 348 | 100 to 1000 |  |  |  | CC[C@H](C)[C@H](NC(=O)Cc1ccccc1)C(=O)NCC(=O)N1c2cc(N)ccc2C[C@H]1C(=O)NCc1nn[nH]n1 [Example C20, (2S)-6-Amino-1-{2-[(2S,3S)-3-Methyl-2-(2-Phenylacetamido)Pentanamido]Acetyl}-N-(2H-1,2,3,4-Tetrazol-5-Ylmethyl)-2,3-Dihydro-1H-Indole-2-Carboxamide] |
| > 750 | > 486 | < 100 |  |  |  | CC[C@H](C)[C@H](NC(=O)Cc1ccccc1)C(=O)NCC(=O)N1c2cc(NC(=O)CCC(=O)O)ccc2C[C@H]1C(=O)NCc1nn[nH]n1 [Example C22, 3-{[(2S)-1-{2-[(2S,3S)-3-Methyl-2-(2-Phenylacetamido)Pentanamido]Acetyl}-2-[(2H-1,2,3,4-Tetrazol-5-Ylmethyl)Carbamoyl]-2,3-Dihydro-1H-Indol-6-Yl]Carbamoyl}Propanoic Acid] |
| > 750 | > 405 | 100 to 1000 |  |  |  | O=C(O)CCC(=O)N[C@H](C(=O)NCC(=O)N1c2ccccc2C[C@H]1C(=O)NCc1nn[nH]n1)c1cccs1 [Example C24, 3-{[(R)-({2-Oxo-2-[(2S)-2-[(2H-1,2,3,4-Tetrazol-5-Ylmethyl)Carbamoyl]-2,3-Dihydro-1H-Indol-1-Yl]Ethyl}Carbamoyl)(Thiophen-2-Yl)Methyl]Carbamoyl}Propanoic Acid] |
| > 750 | > 442 | 100 to 1000 |  |  |  | CC[C@H](C)[C@H](NC(=O)Cc1ccccc1)C(=O)NCC(=O)N1c2cc(NC(C)=O)ccc2C[C@H]1C(=O)NCc1nn[nH]n1 [Example C27, (2S)-6-Acetamido-1-{2-[(2S,3S)-3-Methyl-2-(2-Phenylacetamido)Pentanamido]Acetyl}-N-(2H-1,2,3,4-Tetrazol-5-Ylmethyl)-2,3-Dihydro-1H-Indole-2-Carboxamide] |
| > 750 | > 438 | 100 to 1000 |  |  |  | CC[C@H](C)[C@H](NC(=O)Cc1ccccc1)C(=O)NCC(=O)N1c2ccc(N)cc2C[C@H]1C(=O)NCc1nn[nH]n1 [Example C32, (2S)-5-Amino-1-{2-[(2S,3S)-3-Methyl-2-(2-Phenylacetamido)Pentanamido]Acetyl}-N-(2H-1,2,3,4-Tetrazol-5-Ylmethyl)-2,3-Dihydro-1H-Indole-2-Carboxamide Hydrochloride] |
